# ChEMBL document CHEMBL3132854, “Synthesis and anticancer activity evaluation of resveratrolchalcone conjugates” (2014)
# How the values were obtained:
# Format in all cases: functional
# MDA-MB-231 = assay: Cytotoxicity against human MDA-MB-231 cells by sulforhodamine B assay
# MCF7 = assay: Cytotoxicity against human MCF7 cells by sulforhodamine B assay
# PC-3 = assay: Cytotoxicity against human PC3 cells by sulforhodamine B assay
# SN12C = assay: Cytotoxicity against human SN12C cells by sulforhodamine B assay
# RXF 393 = assay: Cytotoxicity against human RXF393 cells by sulforhodamine B assay
# CAKI-1 = assay: Cytotoxicity against human CAKI-1 cells by sulforhodamine B assay
# ACHN = assay: Cytotoxicity against human ACHN cells by sulforhodamine B assay
# OVCAR-8 = assay: Cytotoxicity against human OVCAR8 cells by sulforhodamine B assay
# [1] = Cytotoxicity against human OVCAR5 cells by sulforhodamine B assay
# [2] = Cytotoxicity against human OVCAR4 cells by sulforhodamine B assay
# OVCAR-3 = assay: Cytotoxicity against human OVCAR3 cells by sulforhodamine B assay
# UACC-62 = assay: Cytotoxicity against human UACC62 cells by sulforhodamine B assay
# SK-MEL-5 = assay: Cytotoxicity against human SK-MEL-5 cells by sulforhodamine B assay
# SK-MEL-28 = assay: Cytotoxicity against human SK-MEL-28 cells by sulforhodamine B assay
# SK-MEL-2 = assay: Cytotoxicity against human SK-MEL-2 cells by sulforhodamine B assay
# MDA-MB-435 = assay: Cytotoxicity against human MDA-MB-435 cells by sulforhodamine B assay
# M14 = assay: Cytotoxicity against human M14 cells by sulforhodamine B assay
# LOX IMVI = assay: Cytotoxicity against human LOXIMVI cells by sulforhodamine B assay
# Malme-3M = assay: Cytotoxicity against human MALME-3M cells by sulforhodamine B assay
# U-251 = assay: Cytotoxicity against human U251 cells by sulforhodamine B assay
# SNB-75 = assay: Cytotoxicity against human SNB75 cells by sulforhodamine B assay
# SNB-19 = assay: Cytotoxicity against human SNB19 cells by sulforhodamine B assay
# SF-295 = assay: Cytotoxicity against human SF295 cells by sulforhodamine B assay
# SF-539 = assay: Cytotoxicity against human SF539 cells by sulforhodamine B assay
# SF-268 = assay: Cytotoxicity against human SF268 cells by sulforhodamine B assay
# HCT-15 = assay: Cytotoxicity against human HCT15 cells by sulforhodamine B assay
# COLO 205 = assay: Cytotoxicity against human COLO205 cells by sulforhodamine B assay
# NCI-H522 = assay: Cytotoxicity against human NCI-H522 cells by sulforhodamine B assay
# NCI-H322M = assay: Cytotoxicity against human NCI-H322M cells by sulforhodamine B assay
# NCI-H226 = assay: Cytotoxicity against human NCI-H226 cells by sulforhodamine B assay
# A549 = assay: Cytotoxicity against human A549/ATCC cells by sulforhodamine B assay
# RPMI-8226 = assay: Cytotoxicity against human RPMI8226 cells by sulforhodamine B assay
# MOLT-4 = assay: Cytotoxicity against human MOLT4 cells by sulforhodamine B assay
# K562 = assay: Cytotoxicity against human K562 cells by sulforhodamine B assay
# CCRF-CEM = assay: Cytotoxicity against human CCRF-CEM cells by sulforhodamine B assay
# HL-60(TB) = assay: Cytotoxicity against human HL-60(TB) cells by sulforhodamine B assay
# MDA-MB-468 = assay: Cytotoxicity against human MDA-MB-468 cells by sulforhodamine B assay
# T47D = assay: Cytotoxicity against human T47D cells by sulforhodamine B assay
# BT-549 = assay: Cytotoxicity against human BT549 cells by sulforhodamine B assay
# [3] = read-out: LC50 (the source's name)
smiles,measurement,setting,value
COc1ccc(C(=O)/C=C/c2ccc(/C=C/c3cc(OC)c(OC)c(OC)c3)cc2)cc1,GI50,MDA-MB-231,10.2 µM
same,TGI,MDA-MB-231,> 100 µM
same,CC50,MDA-MB-231; [3],> 100 µM
same,GI50,MCF7,2.18 µM
same,TGI,MCF7,36.6 µM
same,CC50,MCF7; [3],> 100 µM
same,GI50,PC-3,5.65 µM
same,TGI,PC-3,> 100 µM
same,CC50,PC-3; [3],> 100 µM
same,GI50,SN12C,9.61 µM
same,TGI,SN12C,> 100 µM
same,CC50,SN12C; [3],> 100 µM
same,GI50,RXF 393,8.01 µM
same,TGI,RXF 393,43.6 µM
same,CC50,RXF 393; [3],> 100 µM
same,GI50,CAKI-1,14.6 µM
same,TGI,CAKI-1,> 100 µM
same,CC50,CAKI-1; [3],> 100 µM
same,GI50,ACHN,11.6 µM
same,TGI,ACHN,> 100 µM
same,CC50,ACHN; [3],> 100 µM
same,GI50,OVCAR-8,3.76 µM
same,TGI,OVCAR-8,61.1 µM
same,CC50,OVCAR-8; [3],> 100 µM
same,GI50,[1]; OVCAR-5,34.1 µM
same,TGI,[1]; OVCAR-5,> 100 µM
same,CC50,"[1]; OVCAR-5, read-out: LC50 (the source's name)",> 100 µM
same,GI50,[2]; OVCAR-4,6.31 µM
same,TGI,[2]; OVCAR-4,47.3 µM
same,CC50,"[2]; OVCAR-4, read-out: LC50 (the source's name)",> 100 µM
same,GI50,OVCAR-3,3.92 µM
same,TGI,OVCAR-3,14.3 µM
same,CC50,OVCAR-3; [3],74.4 µM
same,GI50,UACC-62,7.13 µM
same,TGI,UACC-62,> 100 µM
same,CC50,UACC-62; [3],> 100 µM
same,GI50,SK-MEL-5,3.39 µM
same,TGI,SK-MEL-5,19.2 µM
same,CC50,SK-MEL-5; [3],> 100 µM
same,GI50,SK-MEL-28,1.69 µM
same,TGI,SK-MEL-28,> 100 µM
same,CC50,SK-MEL-28; [3],> 100 µM
same,GI50,SK-MEL-2,1.89 µM
same,TGI,SK-MEL-2,> 100 µM
same,CC50,SK-MEL-2; [3],> 100 µM
same,GI50,MDA-MB-435,4.28 µM
same,TGI,MDA-MB-435,47.7 µM
same,CC50,MDA-MB-435; [3],> 100 µM
same,GI50,M14,9.61 µM
same,TGI,M14,> 100 µM
same,CC50,M14; [3],> 100 µM
same,GI50,LOX IMVI,3.76 µM
same,TGI,LOX IMVI,60.9 µM
same,CC50,LOX IMVI; [3],> 100 µM
same,GI50,Malme-3M,13.2 µM
same,TGI,Malme-3M,> 100 µM
same,CC50,Malme-3M; [3],> 100 µM
same,GI50,U-251,5.09 µM
same,TGI,U-251,54.7 µM
same,CC50,U-251; [3],> 100 µM
same,GI50,SNB-75,5.5 µM
same,TGI,SNB-75,47.7 µM
same,CC50,SNB-75; [3],> 100 µM
same,GI50,SNB-19,21.1 µM
same,TGI,SNB-19,> 100 µM
same,CC50,SNB-19; [3],> 100 µM
same,GI50,SF-295,9.01 µM
same,TGI,SF-295,> 100 µM
same,CC50,SF-295; [3],> 100 µM
same,GI50,SF-539,12.2 µM
same,TGI,SF-539,78.3 µM
same,CC50,SF-539; [3],> 100 µM
same,GI50,SF-268,6.08 µM
same,TGI,SF-268,88.3 µM
same,CC50,SF-268; [3],> 100 µM
same,GI50,HCT-15,2.42 µM
same,TGI,HCT-15,> 100 µM
same,CC50,HCT-15; [3],> 100 µM
same,GI50,COLO 205,13.7 µM
same,TGI,COLO 205,> 100 µM
same,CC50,COLO 205; [3],> 100 µM
same,GI50,NCI-H522,3.3 µM
same,TGI,NCI-H522,30.7 µM
same,CC50,NCI-H522; [3],> 100 µM
same,GI50,NCI-H322M,1.98 µM
same,TGI,NCI-H322M,> 100 µM
same,CC50,NCI-H322M; [3],> 100 µM
same,GI50,NCI-H226,3.57 µM
same,TGI,NCI-H226,22.8 µM
same,CC50,NCI-H226; [3],> 100 µM
same,GI50,A549,4.67 µM
same,TGI,A549,80.9 µM
same,CC50,A549; [3],> 100 µM
same,GI50,RPMI-8226,2.57 µM
same,TGI,RPMI-8226,8.54 µM
same,CC50,RPMI-8226; [3],> 100 µM
same,GI50,MOLT-4,3.49 µM
same,TGI,MOLT-4,> 100 µM
same,CC50,MOLT-4; [3],> 100 µM
same,GI50,K562,3.03 µM
same,TGI,K562,> 100 µM
same,CC50,K562; [3],> 100 µM
same,GI50,CCRF-CEM,4.15 µM
same,TGI,CCRF-CEM,> 100 µM
same,CC50,CCRF-CEM; [3],> 100 µM
same,GI50,HL-60(TB),4.49 µM
same,TGI,HL-60(TB),> 100 µM
same,CC50,HL-60(TB); [3],> 100 µM
same,GI50,MDA-MB-468,3.39 µM
same,TGI,MDA-MB-468,48.7 µM
same,CC50,MDA-MB-468; [3],> 100 µM
same,GI50,T47D,6.19 µM
same,TGI,T47D,> 100 µM
same,CC50,T47D; [3],> 100 µM
same,GI50,BT-549,3.36 µM
same,TGI,BT-549,16.8 µM
same,CC50,BT-549; [3],> 100 µM
